Structures can show the parent of a compound that is named as a salt.
Legend:
Cbl-b = Cbl-b (Homo sapiens (Human), UniProt Q13191); assay: Cbl-b LCK Ub TR-FRET assay (Cbl-b Lck HTRF); assay type: biochemical
Procedure, shortened: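 TR-FRET (340 nm excitation, 615/665 nm emission) read after adding HA-ubiquitin–UBE2D2 thioester, anti-HA-D2 and streptavidin-Eu. Beforehand, compounds incubated 60 min with biotinylated Cbl-b, then 90 min with His-LCK and ATP (1 mM in 2× mix); IC50 from 10 concentrations, DMSO high and no-LCK low controls.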

c-Cbl = c-Cbl (Homo sapiens (Human), UniProt P22681); assay: C-Cbl LCK Ub TR-FRET assay (c-cbl Lck HTRF); assay type: biochemical; settings: for (fold-selectivity): C-cbl Lck HTRF IC50 relative to Cbl-b Lck HTRF IC50
c-Cbl, sequence (P22681 47-435): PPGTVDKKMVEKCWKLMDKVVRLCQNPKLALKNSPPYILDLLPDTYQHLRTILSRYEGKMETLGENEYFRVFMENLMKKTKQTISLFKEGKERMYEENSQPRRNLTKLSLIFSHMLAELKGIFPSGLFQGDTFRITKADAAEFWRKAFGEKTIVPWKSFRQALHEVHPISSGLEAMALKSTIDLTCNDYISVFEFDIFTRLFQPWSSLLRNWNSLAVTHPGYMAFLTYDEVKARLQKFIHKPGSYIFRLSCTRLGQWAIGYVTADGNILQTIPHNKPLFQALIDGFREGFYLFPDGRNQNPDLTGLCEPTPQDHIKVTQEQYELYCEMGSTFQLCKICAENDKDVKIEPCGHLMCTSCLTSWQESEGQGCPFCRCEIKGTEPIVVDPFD
Procedure, shortened: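 Detection reagents added, brief spin, 20 min RT. IC50 fit normalized to no-LCK (low) and DMSO (high) controls.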

Cbl-b, sequence (Q13191 40-426): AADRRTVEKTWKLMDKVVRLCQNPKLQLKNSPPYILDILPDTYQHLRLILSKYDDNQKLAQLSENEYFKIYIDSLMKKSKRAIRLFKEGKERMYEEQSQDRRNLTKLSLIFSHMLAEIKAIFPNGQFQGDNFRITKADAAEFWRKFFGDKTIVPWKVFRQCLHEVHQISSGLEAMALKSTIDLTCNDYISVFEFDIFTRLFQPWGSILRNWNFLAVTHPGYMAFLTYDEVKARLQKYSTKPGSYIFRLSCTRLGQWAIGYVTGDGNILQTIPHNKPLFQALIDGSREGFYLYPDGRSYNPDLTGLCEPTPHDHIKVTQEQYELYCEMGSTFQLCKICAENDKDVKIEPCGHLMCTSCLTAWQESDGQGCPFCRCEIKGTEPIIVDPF

Compound	IC50 (Cbl-b)	IC50 (c-Cbl)	(fold-selectivity) (c-Cbl)
CC(C)CNc1cc(C2(Cc3nncn3C)CCC2)cc(N2Cc3c(cc(CNC4(C)CCC4)cc3C(F)(F)F)C2=O)n1 [Compound 348, 2-(6-(isobutylamino)-4-(1-((4-methyl-4H-1,2,4-triazol-3-yl)methyl)cyclobutyl)pyridin-2-yl)-6-(((1-methylcyclobutyl)amino)methyl)-4-(trifluoromethyl)isoindolin-1-one]	13 nM	13 nM	(1.0x)
Cn1cnnc1CC1(c2cc(-c3ccc4ccccc4c3)nc(N3Cc4c(cc(CNC5(C)CCC5)cc4C(F)(F)F)C3=O)c2)CCC1 [Compound 350, 2-(4-(1-((4-methyl-4H-1,2,4-triazol-3-yl)methyl)cyclobutyl)-6-(naphthalen-2-yl)pyridin-2-yl)-6-(((1-methylcyclobutyl)amino)methyl)-4-(trifluoromethyl)isoindolin-1-one]	28 nM	16 nM	(0.57x)
Cn1cnnc1CC1(c2cc(Cl)nc(N3Cc4c(cc(CNC5(C)CCC5)cc4C(F)(F)F)C3=O)c2)CCC1 [Compound 351, 2-(6-chloro-4-(1-((4-methyl-4H-1,2,4-triazol-3-yl)methyl)cyclobutyl)pyridin-2-yl)-6-(((1-methylcyclobutyl)amino)methyl)-4-(trifluoromethyl)isoindolin-1-one formate]	33 nM	19 nM	–
Cn1cnnc1CC1(c2cccc(N3Cc4c(cc(CNCC5(C)CC5)cc4C(F)(F)F)C3=O)c2)CC(F)(F)C1 [Compound 352, 2-(3-(3,3-difluoro-1-((4-methy-4H-1,2,4-triazol-3-yl)methyl)cyclobutyl)phenyl)-6-((((1-methylcyclopropyl)methyl)amino)methyl)-4-(trifluoromethyl)isoindolin-1-one formate]	12 nM	6.7 nM	–
CC1CC(C)(NCc2cc3c(c(C(F)(F)F)c2)CN(c2cccc(C4(Cc5nncn5C)CC(F)(F)C4)c2)C3=O)C1 (stereo not shown) [Compound 353, 2-(3-(3,3-difluoro-1-((4-methyl-4H-1,2,4-triazol-3-yl)methyl)cyclobutyl)phenyl)-6-(((1,3-dimethylcyclobutyl)amino)methyl)-4-(trifluoromethyl)isoindolin-1-one formate]	12 nM	6.6 nM	–
Cn1cnnc1CC1(c2cccc(N3Cc4c(cc(CNC56CC(C)(C5)C6)cc4C(F)(F)F)C3=O)c2)CC(F)(F)C1 [Compound 354, 2-(3-(3,3-difluoro-1-((4-methyl-4H-1,2,4-triazol-3-yl)methyl)cyclobutyl)phenyl)-6-(((3-methylbicyclo[1.1.1]pentan-1-yl)amino)methyl)-4-(trifluoromethyl)isoindolin-1-one formate]	13 nM	7 nM	–
Cn1cnnc1CC1(c2cccc(N3Cc4c(cc(CNC5(C)CCC5(C)C)cc4C(F)(F)F)C3=O)c2)CC(F)(F)C1 (stereo not shown) [Compound 355, 2-(3-(3,3-difluoro-1-((4-methyl-4H-1,2,4-triazol-3-yl)methyl)cyclobutyl)phenyl)-4-(trifluoromethyl)-6-(((1,2,2-trimethylcyclobutyl)amino)methyl) isoindin-1-one formate]	14 nM	9.1 nM	–
Cn1cnnc1CC1(c2cccc(N3Cc4c(cc(CNC56CC(C5)C6)cc4C(F)(F)F)C3=O)c2)CC(F)(F)C1 [Compound 356, 6-((bicyclo[1.1.1]pentan-1-ylamino)methyl)-2-(3-(3,3-difluoro-1-((4-methyl-4H-1,2,4-triazol-3-yl)methyl)cyclobutyl)phenyl)-4-(trifluoromethyl)isoindolin-1-one]	12 nM	10 nM	(0.81x)
Cn1cnnc1CC1(c2cccc(N3Cc4c(cc(CNCC5COC(C)(C)O5)cc4C(F)(F)F)C3=O)c2)CC(F)(F)C1 (stereo not shown) [Compound 357, 2-(3-(3,3-difluoro-1-((4-methyl-4H-1,2,4-triazol-3-yl)methyl)cyclobutyl)phenyl)-6-((((2,2-dimethyl-1,3-dioxolan-4-yl)methyl)amino)methyl)-4-(trifluoromethyl)isoindolin-1-one formate]	38 nM	41 nM	–
Cn1cnnc1CC1(c2cccc(N3Cc4c(cc(CNCC5CCOC5)cc4C(F)(F)F)C3=O)c2)CC(F)(F)C1 (stereo not shown) [Compound 358, 2-(3-(3,3-difluoro-1-((4-methyl-4H-1,2,4-triazol-3-yl)methyl)cyclobutyl)phenyl)-6-((((tetrahydrofuran-3-yl)methyl)amino)methyl)-4-(trifluoromethyl)isoindolin-1-one formate]	16 nM	15 nM	–
CCOc1cc(C2(Cc3nncn3C)CCC2)cc(N2Cc3c(cc(CNC4(C)CCC4)cc3C(F)(F)F)C2=O)n1 [Compound 359, 2-(6-ethoxy-4-(1-((4-methyl-4H-1,2,4-triazol-3-yl)methyl)cyclobutyl)pyridin-2-yl)-6-(((1-methylcyclobutyl)amino)methyl)-4-(trifluoromethyl)isoindolin-1-one]	11 nM	5.3 nM	(0.71x)
Cn1cnnc1CC1(c2cc(OCc3ccccc3)nc(N3Cc4c(cc(CNC5(C)CCC5)cc4C(F)(F)F)C3=O)c2)CCC1 [Compound 360, 2-(6-(benzyloxy)-4-(1-((4-methyl-4H-1,2,4-triazol-3-yl)methyl)cyclobutyl)pyridin-2-yl)-6-(((1-methylcyclobutyl)amino)methyl)-4-(trifluoromethyl)isoindolin-1-one]	20 nM	17 nM	(0.86x)
CCc1cc(C2(Cc3nncn3C)CCC2)cc(N2Cc3c(cc(CNC4(C)CCC4)cc3C(F)(F)F)C2=O)n1 [Compound 361, 2-(6-ethyl-4-(1-((4-methyl-4H-1,2,4-triazol-3-yl)methyl)cyclobutyl)pyridin-2-yl)-6-(((1-methylcyclobutyl)amino)methyl)-4-(trifluoromethyl)isoindolin-1-one]	13 nM	9.6 nM	(0.76x)
CCC1(NCc2cc3c(c(C(F)(F)F)c2)CN(c2cccc(C4(Cc5nncn5C)CC(F)(F)C4)c2)C3=O)CCC1 [Compound 369, 2-(3-(3,3-difluoro-1-((4-methyl-4H-1,2,4-triazol-3-yl)methyl)cyclobutyl)phenyl)-6-(((1-ethylcyclobutyl)amino)methyl)-4-(trifluoromethyl)isoindolin-1-one formate]	17 nM	15 nM	–

Continued, values first:

IC50 (Cbl-b)	IC50 (c-Cbl)	(fold-selectivity) (c-Cbl)	Compound
13 nM	9.6 nM	(0.75x)	Cn1cnnc1CC1(c2cccc(N3Cc4c(cc(CNCC(C)(C)C)cc4C(F)(F)F)C3=O)c2)CC(F)(F)C1 [Compound 363, 2-(3-(3,3-difluoro-1-((4-methyl-4H-1,2,4-triazol-3-yl)methyl)cyclobutyl)phenyl)-6-((neopentylamino)methyl)-4-(trifluoromethyl)isoindolin-1-one]
15 nM	9.7 nM	(0.63x)	Cn1cnnc1CC1(c2cccc(N3Cc4c(cc(CNC5CCCC5)cc4C(F)(F)F)C3=O)c2)CC(F)(F)C1 [Compound 364, 6-((cyclopentylamino)methyl)-2-(3-(3,3-difluoro-1-((4-methyl-4H-1,2,4-triazol-3-yl)methyl)cyclobutyl)phenyl)-4-(trifluoromethyl)isoindolin-1-one]
12 nM	6.7 nM	(0.57x)	COc1cc(C2(Cc3nncn3C)CCC2)cc(N2Cc3c(cc(CN4CCN(C)C[C@@H]4C(C)C)cc3C(F)(F)F)C2=O)n1 [Compound 365, (S)-6-((2-isopropyl-4-methylpiperazin-1-yl)methyl)-2-(6-methoxy-4-(1-((4-methyl-4H-1,2,4-triazol-3-yl)methyl)cyclobutyl)pyridin-2-yl)-4-(trifluoromethyl)isoindolin-1-one]
26 nM	27 nM	(1.0x)	Cn1cnnc1CC1(c2cccc(N3Cc4c(cc(CNC5CC6(COC6)C5)cc4C(F)(F)F)C3=O)c2)CC(F)(F)C1 [Compound 366, 6-((2-oxaspiro[3.3]heptan-6-ylamino)methyl)-2-(3-(3,3-difluoro-1-((4-methyl-4H-1,2,4-triazol-3-yl)methyl)cyclobutyl)phenyl)-4-(trifluoromethyl)isoindolin-1-one]
30 nM	29 nM	(0.96x)	COCC1(NCc2cc3c(c(C(F)(F)F)c2)CN(c2cccc(C4(Cc5nncn5C)CC(F)(F)C4)c2)C3=O)CC1 [Compound 367, 2-(3-(3,3-difluoro-1-((4-methyl-4H-1,2,4-triazol-3-yl)methyl)cyclobutyl)phenyl)-6-(((1-(methoxymethyl)cyclopropyl)amino)methyl)-4-(trifluoromethyl)isoindolin-1-one]
20 nM	14 nM	(0.72x)	Cn1cnnc1CC1(c2cccc(N3Cc4c(cc(CNCC5COC5)cc4C(F)(F)F)C3=O)c2)CC(F)(F)C1 [Compound 368, 2-(3-(3,3-difluoro-1-((4-methyl-4H-1,2,4-triazol-3-yl)methyl)cyclobutyl)phenyl)-6-(((oxetan-3-ylmethyl)amino)methyl)-4-(trifluoromethyl)isoindolin-1-one]
62 nM	63 nM	(1.0x)	CC[C@@H](C)NCc1cc2c(c(C(F)(F)F)c1)CN(c1cccc(C3(Cc4nncn4C)CC(F)(F)C3)c1)C2=O [Compound 370, (R)-6-((sec-butylamino)methyl)-2-(3-(3,3-difluoro-1-((4-methyl-4H-1,2,4-triazol-3-yl)methyl)cyclobutyl)phenyl)-4-(trifluoromethyl)isoindolin-1-one]
